In patent US20260258009A1, “3-[(BENZO[D][1,3]DIOXOLANE-4-YL)OXY]PROPYLAMINE HYDROCHLORIDE, OPTICAL ISOMER AND CRYSTAL THEREOF, AND PREPARATION METHOD THEREFOR” (priority 2022, published 2026):
Counter-ions that a name gives are not always drawn. Like-named read-outs stand apart in the source and are kept apart here.

How the values were obtained:
[1] = Solubility experiment (HPLC, external standard method); type: physicochemical
Method: The concentrated solution was placed in a 20° C. water bath thermostatic oscillator for overnight oscillation (supersaturation) and filtered. The filtrate was taken, 1 mL of which was precisely measured and placed in a 100 mL volumetric flask. A diluent (water) was added, the mixture was diluted to volume and mixed well, 1 mL of which was precisely measured and placed in a 10 mL volumetric flask. A diluent was added, the mixture was diluted to volume and mixed well as a test sample solution.
Control substance solution: A proper amount of 5 samples were respectively taken, precisely measured, dissolved in a proper amount of a diluent by ultrasonication, and diluted to give a solution containing about 0.1 mg of the sample per 1 mL. Two duplicate samples were prepared for each batch.
• (1) Preparation of buffer: About 2.6428 g ammonium sulfate was weighed and dissolved in 1000 mL of water. 2 mL of triethylamine was added, and the pH value was adjusted to 4.0 with dilute sulfuric acid. • (2) Preparation of mobile phase: Methanol-0.02 mol/L ammonium sulfate solution (2 mL triethylamine was added per 1000 mL, and the pH value was adjusted to 4.0 with dilute sulfuric acid) (45:55). 1000 mL was prepared, mixed well, filtered, and used after ultrasonic treatment.
Detection wavelength: 230 nm; flow rate: 1.0 mL/min; column temperature: 35° C.; sample injection volume: 20 μL; chromatographic column: Agilent Eclipse XDB-C18 chromatographic column (4.6×150 mm, 5 μm); mobile phase: methanol-0.02 mol/L ammonium sulfate solution (2 mL triethylamine was added per 1000 mL, and the pH value was adjusted to 4.0 with dilute sulfuric acid) (45:55).
20 μL of each solution was precisely measured, and injected separately into a liquid chromatograph. The chromatograms were recorded, and the solubility of the compounds was determined according to an external standard method.

[2] = Experiments of influencing factors (crystal form stability, XRPD); type: physicochemical; details: hydrochloride; for Crystal form after High temperature of 60° C. / Crystal form after Illumination of 5000 1x / Crystal form after High humidity of 92.5%: XRPD; for Crystal form stability (experimental conclusion): high temperature, high humidity, illumination, condition stated in the value; for Crystal form after Illumination of 5000 1x: photostability tester 5000 lx; for Crystal form after High humidity of 92.5%: relative humidity 92.5%
Method: High temperature experiment: About 1 g of the A, B, and C crystal forms were respectively weighed, placed in a clean watch glass, and placed at 60° C. for 10 days. The samples were taken on day 0, day 5, day 10, and day 30 for XRPD analysis.
High humidity experiment: About 1 g of the A, B, and C crystal form samples were respectively weighed, placed in a clean watch glass, and placed at a relative humidity of 92.5% for 10 days. The samples were taken on day 0, day 5, day 10, and day 30 for XRPD analysis.
Illumination experiment: About 1 g of the A, B, and C crystal form samples were respectively weighed, placed in a clean watch glass, laid flat, and placed in a photostability tester (the illumination was 5000 lx) for 10 days. The samples were taken on day 0, day 5, day 10, and day 30 for XRPD analysis.

Hygroscopicity test = type: physicochemical; details: 25° C.±1° C., relative humidity 80%±2%, 24 h; for Hygroscopicity: hydrochloride
Method: 17.1. A dried glass weighing bottle with a plug (outer diameter: 50 mm; height: 15 mm) was taken and placed in a suitable thermostatic dryer (with saturated ammonium chloride or ammonium sulfate solution placed in the lower part) at 25° C.±1° C. or an artificial climate box (with a set temperature at 25° C.±1° C. and relative humidity at 80%±2%) on the day before the test, and the weight (m1) was precisely measured. 17.2. An appropriate amount of the A crystal form of the compound of formula (I) was taken and spread in the above weighing bottle, with the thickness of the test sample being about 1 mm in general, and the weight (m2) was precisely measured. […] The weighing bottle was opened and placed in the above conditions at constant temperature and humidity for 24 h together with the cap. 17.4. The weighing bottle was capped, and the weight (m3) was precisely measured. [formula]

[3] = both, beagle, dog, in vivo
Method: (§1) Each group had six beagle dogs, half male and half female.
(§2) Preparation of solutions: • 1) Intravenous injection administration: 0.9% Normal saline was used as a vehicle. • 2) Oral administration: According to the dose of 10 mg/kg (based on base), a corresponding mass of the drug was weighed according to the actual weight of the animal, and then filled into a capsule to be administered to the animal.

ICR mice = assay: Mouse forced swimming test; type: in vivo; details: for Immobility time: mice, 1 h after administration, mean±SD, n=12
Method: SPF grade ICR mice were taken. The animals were grouped by weight, 12 animals per group, and the animals were allowed to acclimate for at least 3 days before behavioural test.
The behavioural test was started 1 h after intragastric administration. The mice were placed in a transparent glass cylinder with water (water depth: 15 cm, water temperature: 23-25° C.) and video recorded for 6 min (the background was an LED light panel). At the end of the time, the mice were removed from the water and the next batch of mice was subjected to the behavioural test. Water was changed after every 3 batches of tests. After the test, the video of the behavioural test was derived and the cumulative immobility time of the mice 4 min after the 6 min forced swimming period was analyzed using the Forced Swim Scant 2.0 software.
The test results are expressed as mean±SD. Comparisons between each group and the vehicle group were conducted using the t-test. The differences were considered statistically significant when. P<0.05.

[4] = Pharmacokinetic assay in beagle dogs; details: both, dog, in vivo, mean; for half-life: t1/2, beagle dogs
Method: as §1, §2

[5] = 5 days, listed as A crystal form
[6] = 10 days, listed as A crystal form
[7] = 30 days, listed as A crystal form
[8] = po, 1 mg/kg, beagle dogs, oral (capsule)

CNCC[C@@H](Oc1cccc2c1OCO2)c1ccccc1.O=C(O)C(=O)O [(R)—N-methyl-3-phenyl-3-[(benzo[d][1,3]dioxolan-4-yl)oxy]propylamine oxalate, reference compound]
solubility ([1]; thermodynamic from solid, Water, 20° C., overnight oscillation, read-out: Solubility): 5100 µg/mL

CNCC[C@@H](Oc1cccc2c1OCO2)c1ccccc1.Cl [B crystal form, (R)—N-methyl-3-phenyl-3-[(benzo[d][1,3]dioxolan-4-yl)oxy]propylamine hydrochloride]
Crystal form after High temperature of 60° C. ([2]; 5 days): Crystal form A + B
Crystal form after High temperature of 60° C. ([2]; 10 days): Crystal form A + B
Crystal form after High temperature of 60° C. ([2]; 30 days): Crystal form A + B
Crystal form stability (experimental conclusion) [2]: converted into a mixed crystal of the crystal forms A and B under the high temperature and high humidity environment
Crystal form after Illumination of 5000 1x ([2]; 5 days): Crystal form B
Crystal form after Illumination of 5000 1x ([2]; 10 days): Crystal form B
Crystal form after Illumination of 5000 1x ([2]; 30 days): Crystal form B
Crystal form after High humidity of 92.5% ([2]; 5 days): Crystal form A + B
Crystal form after High humidity of 92.5% ([2]; 10 days): Crystal form A + B
Crystal form after High humidity of 92.5% ([2]; 30 days): Crystal form A + B

CNCC[C@@H](Oc1cccc2c1OCO2)c1ccccc1.Cl [C crystal form, (R)—N-methyl-3-phenyl-3-[(benzo[d][1,3]dioxolan-4-yl)oxy]propylamine hydrochloride]
Crystal form after High temperature of 60° C. ([2]; 5 days): Crystal form C
Crystal form after High temperature of 60° C. ([2]; 10 days): Crystal form C
Crystal form after High temperature of 60° C. ([2]; 30 days): Crystal form C
Crystal form stability (experimental conclusion) [2]: converted into the A crystal form under the high humidity environment
Crystal form after Illumination of 5000 1x ([2]; 5 days): Crystal form C
Crystal form after Illumination of 5000 1x ([2]; 10 days): Crystal form C
Crystal form after Illumination of 5000 1x ([2]; 30 days): Crystal form C
Crystal form after High humidity of 92.5% ([2]; 5 days): Crystal form A
Crystal form after High humidity of 92.5% ([2]; 10 days): Crystal form A
Crystal form after High humidity of 92.5% ([2]; 30 days): Crystal form A

CNCC[C@@H](Oc1cccc2c1OCO2)c1ccccc1.Cl [Crystal form A of compound of formula (I)] [(R)—N-methyl-3-phenyl-3-[(benzo[d][1,3]dioxolan-4-yl)oxy]propylamine hydrochloride]
Crystal form after High temperature of 60° C. [2, 5]: Crystal form A
Crystal form after High temperature of 60° C. [2, 6]: Crystal form A
Crystal form after High temperature of 60° C. [2, 7]: Crystal form A
Crystal form stability (experimental conclusion) ([2]; listed as A crystal form): can keep stable under high temperature, high humidity, and illumination
Crystal form after Illumination of 5000 1x [2, 5]: Crystal form A
Crystal form after Illumination of 5000 1x [2, 6]: Crystal form A
Crystal form after Illumination of 5000 1x [2, 7]: Crystal form A
Crystal form after High humidity of 92.5% [2, 5]: Crystal form A
Crystal form after High humidity of 92.5% [2, 6]: Crystal form A
Crystal form after High humidity of 92.5% [2, 7]: Crystal form A
solubility [1]: 35550 µg/mL
Weight gain (Hygroscopicity test): 0.01%
Hygroscopicity (Hygroscopicity test; listed as A crystal form of the compound of formula (I)): no or almost no hygroscopicity
Hygroscopicity (Hygroscopicity test; listed as A crystal form): no or almost no hygroscopicity
AUC(0-t) ([3]; iv, 0.3 mg/kg): 123.7 ng·h/mL
AUC(0-∞) ([3]; iv, 0.3 mg/kg): 124.5 ng·h/mL
Cmax ([3]; iv, 0.3 mg/kg): 83.6 ng/mL
Tmax ([3]; iv, 0.3 mg/kg): 0.08 h
t1/2 ([3]; iv, 0.3 mg/kg): 2.08 h
bioavailability ([3]; po): 28.2%
AUC(0-t) ([3]; po, 1 mg/kg): 116.3 ng·h/mL
AUC(0-∞) ([3]; po, 1 mg/kg): 117.1 ng·h/mL
Cmax ([3]; po, 1 mg/kg): 35.3 ng/mL
Tmax ([3]; po, 1 mg/kg): 0.92 h
t1/2 ([3]; po, 1 mg/kg): 2.48 h

CNCC[C@H](Oc1cccc2ccccc12)c1cccs1 [Duloxetine hydrochloride, reference compound]
ED50 (ICR mice; Mus musculus, po, read-out: ED50 (median effective dose, FST-ED50)): 6.93 mg/kg
Immobility time (ICR mice; intragastric, 1.25 mg/kg): 135.1 ± 49.2 s
Immobility time (ICR mice; intragastric, 2.5 mg/kg): 154.9 ± 76.0 s
Immobility time (ICR mice; intragastric, 5 mg/kg): 104.9 ± 51.5 s
Immobility time (ICR mice; intragastric, 20 mg/kg): 29.9 ± 45.4 s
Immobility time (ICR mice; intragastric, 40 mg/kg): 10.6 ± 17.3 s
minimum effective dose (MED) (ICR mice; mouse forced swimming, intragastric): 5 mg/kg

CNCCC(Oc1cccc2c1OCO2)c1ccccc1.O=C(O)C(=O)O (centres unmarked) [N-methyl-3-phenyl-3-[(benzo[d][1,3]dioxolan-4-yl)oxy]propylamine oxalate]
solubility ([1]; water, 20 °C, water, thermodynamic from solid, Water, 20° C., overnight oscillation, read-out: Solubility): 6900 µg/mL
AUC(0-t) ([4]; iv, 0.3 mg/kg, beagle dogs): 109 ng·h/mL
AUC(0-inf) ([4]; iv, 0.3 mg/kg, beagle dogs): 110 ng·h/mL
Cmax ([4]; iv, 0.3 mg/kg, beagle dogs): 71.6 ng/mL
Tmax ([4]; iv, 0.3 mg/kg, beagle dogs): 0.08 h
half-life ([4]; iv, 0.3 mg/kg): 1.93 h
AUC(0-t) [4, 8]: 78.7 ng·h/mL
AUC(0-inf) [4, 8]: 79.9 ng·h/mL
bioavailability ([4]; po, 1 mg/kg, Bioavailability, beagle dogs, oral 1 mg/kg vs intravenous 0.3 mg/kg): 21.8%
Cmax [4, 8]: 23.7 ng/mL
Tmax [4, 8]: 1.43 h
half-life ([4]; po, 1 mg/kg, oral (capsule)): 1.98 h
